# From ChEMBL document CHEMBL5465560, “Selectivity Literature for EUbOPEN Chemogenomic Library” (2024)
# Columns and labels:
# [1] = molecular target: T1, Dual specificity mitogen-activated protein kinase kinase 7 (Homo sapiens) (UniProt O14733); assay: Selectivity interaction (KinomeScan (DiscoverX)) EUB0001049a MAP2K7; conditions: at 1 µM
# T1 sequence (whole entry): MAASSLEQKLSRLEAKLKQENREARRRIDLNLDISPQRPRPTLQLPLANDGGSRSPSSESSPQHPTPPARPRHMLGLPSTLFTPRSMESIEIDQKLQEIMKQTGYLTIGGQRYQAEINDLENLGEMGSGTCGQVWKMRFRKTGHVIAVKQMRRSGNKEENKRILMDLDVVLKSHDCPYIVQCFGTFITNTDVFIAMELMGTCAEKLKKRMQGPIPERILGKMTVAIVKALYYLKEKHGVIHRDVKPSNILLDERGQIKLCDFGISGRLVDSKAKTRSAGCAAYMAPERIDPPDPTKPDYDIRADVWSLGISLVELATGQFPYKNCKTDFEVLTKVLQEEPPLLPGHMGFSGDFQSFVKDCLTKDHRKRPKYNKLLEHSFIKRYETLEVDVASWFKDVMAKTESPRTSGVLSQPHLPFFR
# [2] = molecular target: T2, Mitotic checkpoint serine/threonine-protein kinase BUB1 (Homo sapiens, UniProt O43683); assay: Selectivity interaction (KinomeScan (DiscoverX)) EUB0000229b BUB1; conditions: at 10 µM
# T2 sequence (O43683 whole entry, looked up): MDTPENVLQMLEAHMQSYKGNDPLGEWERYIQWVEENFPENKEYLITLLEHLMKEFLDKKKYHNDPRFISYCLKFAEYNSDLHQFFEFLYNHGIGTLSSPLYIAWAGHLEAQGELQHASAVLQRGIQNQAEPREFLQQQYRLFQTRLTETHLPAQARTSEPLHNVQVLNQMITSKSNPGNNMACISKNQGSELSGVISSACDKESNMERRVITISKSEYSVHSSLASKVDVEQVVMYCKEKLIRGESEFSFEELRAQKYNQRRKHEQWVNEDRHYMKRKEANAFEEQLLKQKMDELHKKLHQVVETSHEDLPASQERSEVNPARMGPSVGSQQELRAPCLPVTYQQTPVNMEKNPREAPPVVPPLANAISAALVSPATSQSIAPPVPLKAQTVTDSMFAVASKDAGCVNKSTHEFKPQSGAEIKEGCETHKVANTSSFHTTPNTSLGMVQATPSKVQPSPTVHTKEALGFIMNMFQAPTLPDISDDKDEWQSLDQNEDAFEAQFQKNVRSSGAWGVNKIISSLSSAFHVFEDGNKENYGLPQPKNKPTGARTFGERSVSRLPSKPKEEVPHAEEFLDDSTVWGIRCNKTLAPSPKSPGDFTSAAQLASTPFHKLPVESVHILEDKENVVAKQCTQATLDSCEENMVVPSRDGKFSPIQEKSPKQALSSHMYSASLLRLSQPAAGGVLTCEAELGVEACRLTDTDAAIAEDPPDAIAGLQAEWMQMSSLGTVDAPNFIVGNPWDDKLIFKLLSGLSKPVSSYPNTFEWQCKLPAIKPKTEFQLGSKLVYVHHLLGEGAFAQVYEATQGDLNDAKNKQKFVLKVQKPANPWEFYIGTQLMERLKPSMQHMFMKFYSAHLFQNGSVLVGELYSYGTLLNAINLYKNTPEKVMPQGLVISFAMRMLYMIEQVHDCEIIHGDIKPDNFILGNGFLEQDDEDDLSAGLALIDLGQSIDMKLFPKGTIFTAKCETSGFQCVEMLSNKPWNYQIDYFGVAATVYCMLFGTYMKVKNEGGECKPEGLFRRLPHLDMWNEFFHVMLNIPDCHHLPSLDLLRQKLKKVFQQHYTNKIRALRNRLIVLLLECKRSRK
# [3] = molecular target: Platelet-derived growth factor receptor alpha (Homo sapiens, UniProt P16234); assay: Selectivity interaction (KinomeScan (DiscoverX)) EUB0001079a PDGFRA; conditions: at 1 µM
# Chain of Platelet-derived growth factor receptor alpha (P16234 whole entry): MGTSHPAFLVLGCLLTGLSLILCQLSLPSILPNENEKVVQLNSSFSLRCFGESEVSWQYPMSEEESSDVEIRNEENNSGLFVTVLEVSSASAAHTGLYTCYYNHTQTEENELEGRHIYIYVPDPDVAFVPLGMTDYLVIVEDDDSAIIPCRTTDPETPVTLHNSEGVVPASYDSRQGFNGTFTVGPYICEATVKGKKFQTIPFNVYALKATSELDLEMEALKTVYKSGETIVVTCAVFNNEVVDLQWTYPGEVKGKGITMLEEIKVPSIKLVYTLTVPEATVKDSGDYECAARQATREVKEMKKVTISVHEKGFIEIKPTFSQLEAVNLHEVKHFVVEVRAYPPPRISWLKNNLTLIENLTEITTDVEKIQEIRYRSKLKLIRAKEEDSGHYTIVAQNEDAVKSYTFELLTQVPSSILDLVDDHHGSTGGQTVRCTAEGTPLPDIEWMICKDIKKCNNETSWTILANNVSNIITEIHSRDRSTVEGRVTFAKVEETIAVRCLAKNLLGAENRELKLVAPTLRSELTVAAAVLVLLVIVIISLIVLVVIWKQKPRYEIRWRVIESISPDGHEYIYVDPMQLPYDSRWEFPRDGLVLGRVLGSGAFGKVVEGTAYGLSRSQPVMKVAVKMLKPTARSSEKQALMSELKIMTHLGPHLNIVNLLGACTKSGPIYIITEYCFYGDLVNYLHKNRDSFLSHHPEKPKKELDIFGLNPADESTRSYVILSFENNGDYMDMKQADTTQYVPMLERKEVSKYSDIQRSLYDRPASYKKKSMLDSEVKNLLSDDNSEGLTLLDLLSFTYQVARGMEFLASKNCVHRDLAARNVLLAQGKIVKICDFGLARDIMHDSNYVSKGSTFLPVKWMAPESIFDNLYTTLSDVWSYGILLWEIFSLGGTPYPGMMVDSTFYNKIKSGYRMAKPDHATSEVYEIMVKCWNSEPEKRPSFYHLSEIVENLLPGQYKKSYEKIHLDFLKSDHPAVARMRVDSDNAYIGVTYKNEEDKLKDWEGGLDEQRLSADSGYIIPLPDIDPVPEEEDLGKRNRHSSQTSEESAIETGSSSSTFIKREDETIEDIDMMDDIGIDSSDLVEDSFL
# [4] = molecular target: T3, Cyclin-dependent kinase-like 2 (Homo sapiens) (UniProt Q92772); assay: Selectivity interaction (KinomeScan (DiscoverX)) EUB0000595a CDKL2; conditions: at 10 µM
# T3 sequence (whole entry): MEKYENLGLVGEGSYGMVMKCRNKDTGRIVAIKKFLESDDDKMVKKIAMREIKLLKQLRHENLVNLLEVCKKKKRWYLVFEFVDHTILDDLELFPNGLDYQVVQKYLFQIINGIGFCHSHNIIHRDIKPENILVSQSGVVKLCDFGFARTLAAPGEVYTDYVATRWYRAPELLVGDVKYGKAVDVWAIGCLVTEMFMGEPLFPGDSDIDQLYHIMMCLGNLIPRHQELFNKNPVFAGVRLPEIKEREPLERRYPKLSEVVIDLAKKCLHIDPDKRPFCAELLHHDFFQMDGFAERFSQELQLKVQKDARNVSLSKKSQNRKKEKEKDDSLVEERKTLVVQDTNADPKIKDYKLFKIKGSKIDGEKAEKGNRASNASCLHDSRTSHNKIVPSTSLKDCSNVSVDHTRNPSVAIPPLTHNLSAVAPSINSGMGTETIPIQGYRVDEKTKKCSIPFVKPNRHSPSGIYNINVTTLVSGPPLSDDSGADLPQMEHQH
# [5] = molecular target: Serine/threonine-protein kinase/endoribonuclease IRE1 (Homo sapiens) (UniProt O75460); assay: Selectivity interaction (KinomeScan (DiscoverX)) EUB0000092b ERN1; conditions: at 10 µM
# Chain of Serine/threonine-protein kinase/endoribonuclease IRE1 (Homo sapiens) (O75460 19-977 limits assumed): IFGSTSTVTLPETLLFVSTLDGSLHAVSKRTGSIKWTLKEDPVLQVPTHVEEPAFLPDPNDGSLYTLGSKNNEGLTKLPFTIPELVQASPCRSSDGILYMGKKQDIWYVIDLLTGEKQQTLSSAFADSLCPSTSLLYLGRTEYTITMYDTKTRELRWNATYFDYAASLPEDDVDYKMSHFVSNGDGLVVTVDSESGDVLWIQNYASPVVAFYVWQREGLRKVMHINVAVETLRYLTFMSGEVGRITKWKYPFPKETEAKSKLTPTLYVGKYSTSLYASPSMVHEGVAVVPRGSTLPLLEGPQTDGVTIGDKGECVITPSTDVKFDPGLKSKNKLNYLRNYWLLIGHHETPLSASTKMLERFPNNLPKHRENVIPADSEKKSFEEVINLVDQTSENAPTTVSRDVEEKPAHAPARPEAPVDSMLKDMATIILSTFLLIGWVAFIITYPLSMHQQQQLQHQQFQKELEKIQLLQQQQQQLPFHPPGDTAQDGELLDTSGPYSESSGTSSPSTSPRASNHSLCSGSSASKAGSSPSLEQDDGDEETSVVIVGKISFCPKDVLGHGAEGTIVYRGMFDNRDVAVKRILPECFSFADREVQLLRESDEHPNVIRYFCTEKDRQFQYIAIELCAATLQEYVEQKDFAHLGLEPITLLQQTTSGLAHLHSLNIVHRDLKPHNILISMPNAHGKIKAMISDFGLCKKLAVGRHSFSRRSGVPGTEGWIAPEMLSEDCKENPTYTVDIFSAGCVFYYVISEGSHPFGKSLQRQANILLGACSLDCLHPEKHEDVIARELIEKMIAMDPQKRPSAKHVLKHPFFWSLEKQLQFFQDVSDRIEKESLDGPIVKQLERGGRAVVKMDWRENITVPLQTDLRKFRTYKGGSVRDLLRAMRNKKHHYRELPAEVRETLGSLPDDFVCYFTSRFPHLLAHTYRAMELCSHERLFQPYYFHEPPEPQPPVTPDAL
# [6] = molecular target: T2, Mitotic checkpoint serine/threonine-protein kinase BUB1; assay: Selectivity interaction (Ambit KINOMEscan and KiNATiv profiling in Jurkat cells) EUB0000090b BUB1; type: cell-based; conditions: at 1 µM
# [7] = molecular target: Serine/threonine-protein kinase PLK3 (Homo sapiens, UniProt Q9H4B4); assay: Selectivity interaction (KinomeScan (DiscoverX)) EUB0000045b PLK3
# Chain of Serine/threonine-protein kinase PLK3 (Q9H4B4 whole entry, looked up): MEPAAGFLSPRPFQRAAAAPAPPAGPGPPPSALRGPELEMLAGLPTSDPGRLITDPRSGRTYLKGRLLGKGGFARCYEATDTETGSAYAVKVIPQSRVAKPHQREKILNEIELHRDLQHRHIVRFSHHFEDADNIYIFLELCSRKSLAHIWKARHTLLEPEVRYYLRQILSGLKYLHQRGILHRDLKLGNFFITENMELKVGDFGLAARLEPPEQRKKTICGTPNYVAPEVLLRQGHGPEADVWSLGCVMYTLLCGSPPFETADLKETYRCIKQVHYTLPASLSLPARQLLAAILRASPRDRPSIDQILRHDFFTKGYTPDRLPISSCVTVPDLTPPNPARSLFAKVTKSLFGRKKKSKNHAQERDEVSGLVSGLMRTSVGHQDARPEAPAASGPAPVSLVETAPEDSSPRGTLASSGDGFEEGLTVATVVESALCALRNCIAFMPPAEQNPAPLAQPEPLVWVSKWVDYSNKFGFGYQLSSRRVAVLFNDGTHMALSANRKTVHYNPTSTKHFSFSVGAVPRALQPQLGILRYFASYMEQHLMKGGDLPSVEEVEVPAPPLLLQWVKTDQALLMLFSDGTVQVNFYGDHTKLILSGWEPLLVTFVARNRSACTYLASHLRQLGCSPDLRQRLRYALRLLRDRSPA
# [8] = molecular target: Serine/threonine-protein kinase PAK 1 (Homo sapiens) (UniProt Q13153); assay: Selectivity interaction (KinomeScan (DiscoverX)) EUB0000607a PAK1; conditions: at 10 µM
# Chain of Serine/threonine-protein kinase PAK 1 (Homo sapiens) (Q13153 whole entry): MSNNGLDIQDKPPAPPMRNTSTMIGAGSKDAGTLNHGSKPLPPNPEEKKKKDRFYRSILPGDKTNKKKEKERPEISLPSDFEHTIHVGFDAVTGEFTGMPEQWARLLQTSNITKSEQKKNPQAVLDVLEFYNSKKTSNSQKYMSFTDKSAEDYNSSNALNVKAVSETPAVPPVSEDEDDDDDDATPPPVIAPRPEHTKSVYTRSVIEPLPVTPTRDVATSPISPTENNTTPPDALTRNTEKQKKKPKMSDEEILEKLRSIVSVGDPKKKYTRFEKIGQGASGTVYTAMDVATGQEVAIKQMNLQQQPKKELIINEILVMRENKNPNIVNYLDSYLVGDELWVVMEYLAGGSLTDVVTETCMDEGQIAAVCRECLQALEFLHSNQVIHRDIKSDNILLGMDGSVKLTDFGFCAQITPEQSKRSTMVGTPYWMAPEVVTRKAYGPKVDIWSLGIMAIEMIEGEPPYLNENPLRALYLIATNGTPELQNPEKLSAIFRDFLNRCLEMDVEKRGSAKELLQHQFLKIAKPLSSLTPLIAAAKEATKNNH
# [9] = molecular target: T4, Serine/threonine-protein kinase Chk1 (Homo sapiens) (UniProt O14757); assay: Selectivity interaction (SelectScreen profiling (Invitrogen)) EUB0000607a CHEK1; conditions: at 2 µM
# T4 sequence (whole entry): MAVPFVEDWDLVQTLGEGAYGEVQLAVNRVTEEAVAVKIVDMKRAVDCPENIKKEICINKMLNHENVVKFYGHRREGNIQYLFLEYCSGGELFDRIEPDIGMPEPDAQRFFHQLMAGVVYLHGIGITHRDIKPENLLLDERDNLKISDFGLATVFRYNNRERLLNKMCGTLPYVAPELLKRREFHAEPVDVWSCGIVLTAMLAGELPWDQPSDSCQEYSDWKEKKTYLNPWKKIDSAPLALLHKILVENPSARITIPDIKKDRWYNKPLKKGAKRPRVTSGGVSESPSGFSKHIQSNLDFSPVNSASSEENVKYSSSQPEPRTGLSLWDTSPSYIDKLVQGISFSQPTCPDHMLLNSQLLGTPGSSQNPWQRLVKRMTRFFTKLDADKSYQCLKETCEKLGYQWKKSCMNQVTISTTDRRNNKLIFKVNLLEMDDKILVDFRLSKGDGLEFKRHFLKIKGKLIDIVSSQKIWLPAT
smiles,measurement,setting,value
COc1cc(Nc2nc(C)cc(-c3cnn4nc(OC)ccc34)n2)cc(C(F)(F)F)c1,% of control,[1],99%
COc1cc(N(C)c2ccnc3ccc(C(F)(F)F)cc23)cc(OC)c1OC,% binding,[2],98%
Nc1cnc(N2CCc3cc(S(=O)(=O)Nc4c(F)cc(Cl)cc4F)cc(N4CCCC4=O)c32)nc1 [TP-020n],% of control,[3],89%
COCC(=O)NC/C=C/c1ccc2ncnc(Nc3ccc(Oc4ccc(C)nc4)c(C)c3)c2c1 [CP-724714],% of control,[4],91%
CCC(=O)N1CCN(c2ccc(-n3c(=O)ccc4cnc5ccc(-c6cnc7ccccc7c6)cc5c43)cc2C(F)(F)F)CC1,% of control,[5],100%
CN(C)C/C=C/C(=O)Nc1ccc(C(=O)N2CCCC(Nc3ncc(Cl)c(-c4c[nH]c5ccccc45)n3)C2)cc1 (stereo not given),% of control,[6],96%
C=CC(=O)Nc1cc(-n2c(=O)ccc3cnc4ccc(-c5ccc(NS(C)(=O)=O)cc5)cc4c32)ccc1C,% of control,[7]; at 1 µM,100%
same,% of control,[7]; at 10 µM,100%
CNC(=O)Nc1ccc(-c2nc(N3CC4CCC(C3)O4)c3cnn(C4CCC5(CC4)OCCO5)c3n2)cc1,% of control,[8],100%
same,% of inhibition,[9],9%
